Read-outs that look alike come from different tables or passages of the source.
What was measured:
in vivo = conditions: beagle, dog
Source text: (§4) HPLC Instrument: Shimsadzu (DGU-20A5R, Serial No: L20705621435 IX; LC-30AD Serial No: L20555611905 AE and L20555611816 AE; SIL-L30AC, Serial No: L20565605499 AE; Rack Changer II Serial No. L20585601125 SS; CTO20A: Serial No. L20205620413 CD; CBM-20A: Serial No. L20235636200 CD) • MS: AB API 5500 LC/MS/MS instrument (Serial No. EF221221812) • Column: Phenomenex Synergi 2.5 μm Polar-RP 100A. (50×3 mm) • Mobile Phase: (A) 5% Acetonitrile in Water (0.1% Formic acid); (B) 95% Acetonitrile in Water (0.1% Formic acid) • Samples: 50 μL of plasma sample+5 μL of blank solution+200 μL of acetonitrile for PPE (protein precipitation extraction).
(§5) The desired serial concentrations of working solutions were achieved by diluting stock solution of analyte with 50% acetonitrile in water solution. 5 μL of working solutions (5, 10, 20, 50, 100, 500, 1000, 5000, 10000 ng/mL) were added to 50 μL of the blank Beagle Dog plasma to achieve calibration standards of 0.5˜1000 ng/mL (0.5, 1, 2, 5, 10, 50, 100, 500, 1000 ng/mL) in a total volume of 55 μL. Five quality control samples at 1 ng/mL, 2 ng/mL, 5 ng/mL, 50 ng/mL and 800 ng/mL for plasma were prepared independently of those used for the calibration curves. These QC samples were prepared on the day of analysis in the same way as calibration standards.
(§6) 55 μL standards, 55 μL QC samples and 55 μL unknown samples 50 μL plasma with 5 μL blank solution) were added to 200 μL of acetonitrile containing IS mixture for precipitating protein respectively. Then the samples were vortexed for 30 s. After centrifugation at 4 degree Celsius, 3900 rpm for 15 min, the supernatant was diluted 3 times with water.

[1] = dog, in vivo
Source text: as §4, §5, §6

[2] = Hepatocyte metabolism (stability in cryopreserved hepatocytes); conditions: human hepatocytes
Protocol: (§7) A 2.5 uL aliquot of 100 μM test compound was incubated with 247.5 uL of cryopreserved hepatocytes suspended in serum-free incubation medium at 1 million viable cells/mL. The mixture was incubated at 37° C. and shaken at 500 rpm for the designated time points (0.5, 5, 10, 15, 30, 60, 90, or 120 min). At each time point, 25 uL aliquot of incubation mixture was transferred to 125 uL of cold acetonitrile containing internal standard, followed by centrifugation for 30 min at 3,220 g. 100 uL of supernatant was mixed with 100 uL of distilled water for analysis by LC-MS/MS. Peak area ratios were determined from extracted ion chromatograms and percent recovery was calculated.

PDE4C1 = PDE4C1 (Homo sapiens (Human), UniProt Q08493); assay: PDE4 inhibition assay (fluorescence polarization), PDE4C1; type: biochemical; conditions: 10 μM
Protocol: (§1) 100 μM dilutions of the test compounds were prepared in assay buffer (10% DMSO concentration) and 5 μl of the dilution was added to a 50 μl reaction so that the final concentration of DMSO is 1% in all of reactions. The enzymatic reactions were conducted at room temperature for 60 minutes in a 50 μl mixture containing PDE assay buffer, 100 nM FAM-cAMP, a PDE enzyme (Table 2.3.1) and the test compound (Section 2.2). After the enzymatic reaction, 100 μl of a binding solution (1:100 dilution of the binding agent with the binding agent diluent) was added to each reaction and the reaction was performed at room temperature for 60 minutes. Fluorescence intensity was measured at an excitation of 485 nm and an emission of 528 nm using a Tecan Infinite M1000 microplate reader.
(§2) • 1) Dilute 20 μM FAM-Cyclic-3′, 5′-AMP stock 100-fold with PDE buffer to make a 200 nM solution. • 2) Add 25 μl of FAM-Cyclic-3′,5′-AMP (200 nM) to each well designated “Positive Control”, “Test Inhibitor”, and “Substrate Control”. • 3) Add 20 μl of PDE assay buffer to each well designated “Substrate Control” and 45 μl of PDE assay buffer to each well designated “Blank”. • 4) Add 5 μl of inhibitor solution to each well designated “Test Inhibitor”. For the wells labeled “Positive Control”, “Substrate Control” and “Blank”, add 5 μl of the same solution without inhibitor (inhibitor buffer). • 5) Thaw PDE on ice. Upon first thaw, briefly spin tube containing enzyme to recover the full contents of the tube. • 6) Dilute PDE4 in PDE buffer to 7.5 pg/μl (0.15 ng/reaction)*. Initiate reaction by adding 20 µl of PDE4 (7.5 pg/μl) to the wells designated “Positive Control” and “Test Inhibitor.” • 7) Incubate at room temperature for 1 hour.
(§3) • 1) Mix binding agent thoroughly and dilute binding agent 1:100 with binding agent diluent. • 2) Add 100 μl diluted binding agent to each microwell. Incubate at room temperature for 1 hour with slow shaking. • 3) Read the fluorescent polarization of the sample in a microtiter-plate reader equipped for the measurement of fluorescence polarization, capable of excitation at wavelengths ranging from 485±5 nm and detection of emitted light ranging from 528±10 nm. Blank value is subtracted from all other values. • 4) Data Analysis: PDE activity assays were performed in duplicate at each concentration. Fluorescence intensity is converted to fluorescence polarization using the Tecan Magellan6 software. The fluorescence polarization data were analyzed using the computer software, Graphpad Prism. The fluorescence polarization (FPt) in absence of the compound in each data set was defined as 100% activity. In the absence of PDE and the compound, the value of fluorescent polarization (FPb) in each data set was defined as 0% activity. The percent activity in the presence of the compound was calculated according to the following equation: % activity=(FP−FPb)/(FPt−FPb)×100%, where FP=the fluorescence polarization in the presence of the compound. The values of % activity versus a series of compound concentrations were then plotted using non-linear regression analysis of sigmoidal dose-response curve generated with the equation Y=B+(T−B)/1+10^(LogEC50−X)×Hill Slope), where Y=percent activity, B=minimum percent activity, T=maximum percent activity, X=logarithm of compound and Hill Slope=slope factor or Hill coefficient. The IC50 value was determined by the concentration causing a half-maximal percent activity.

PDE4D2 = PDE4D2 (Homo sapiens (Human), UniProt Q08499); assay: PDE4 inhibition assay (fluorescence polarization), PDE4D2; type: biochemical; conditions: 10 μM
Sequence of PDE4D2 (Q08499 303-809): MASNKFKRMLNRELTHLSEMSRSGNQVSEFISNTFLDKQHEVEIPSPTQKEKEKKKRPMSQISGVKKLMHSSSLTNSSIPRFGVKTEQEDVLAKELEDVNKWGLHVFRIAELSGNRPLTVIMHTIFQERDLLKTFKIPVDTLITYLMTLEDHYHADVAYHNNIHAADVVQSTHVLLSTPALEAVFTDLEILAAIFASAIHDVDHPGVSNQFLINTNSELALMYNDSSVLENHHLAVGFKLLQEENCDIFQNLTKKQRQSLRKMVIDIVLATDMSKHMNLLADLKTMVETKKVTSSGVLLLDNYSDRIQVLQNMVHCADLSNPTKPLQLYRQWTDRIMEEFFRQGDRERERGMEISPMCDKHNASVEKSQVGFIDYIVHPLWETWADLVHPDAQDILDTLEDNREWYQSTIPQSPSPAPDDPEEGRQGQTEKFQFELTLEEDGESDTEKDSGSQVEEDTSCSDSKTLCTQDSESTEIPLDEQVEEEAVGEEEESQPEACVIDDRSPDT
Protocol: as §1, §2, §3

PDE4A1A = PDE4A1A (Homo sapiens (Human), UniProt P27815); assay: PDE4 inhibition assay (fluorescence polarization), PDE4A1A; type: biochemical; conditions: 10 μM
Sequence of PDE4A1A (P27815 other isoform, or with tags, fused parts or gaps): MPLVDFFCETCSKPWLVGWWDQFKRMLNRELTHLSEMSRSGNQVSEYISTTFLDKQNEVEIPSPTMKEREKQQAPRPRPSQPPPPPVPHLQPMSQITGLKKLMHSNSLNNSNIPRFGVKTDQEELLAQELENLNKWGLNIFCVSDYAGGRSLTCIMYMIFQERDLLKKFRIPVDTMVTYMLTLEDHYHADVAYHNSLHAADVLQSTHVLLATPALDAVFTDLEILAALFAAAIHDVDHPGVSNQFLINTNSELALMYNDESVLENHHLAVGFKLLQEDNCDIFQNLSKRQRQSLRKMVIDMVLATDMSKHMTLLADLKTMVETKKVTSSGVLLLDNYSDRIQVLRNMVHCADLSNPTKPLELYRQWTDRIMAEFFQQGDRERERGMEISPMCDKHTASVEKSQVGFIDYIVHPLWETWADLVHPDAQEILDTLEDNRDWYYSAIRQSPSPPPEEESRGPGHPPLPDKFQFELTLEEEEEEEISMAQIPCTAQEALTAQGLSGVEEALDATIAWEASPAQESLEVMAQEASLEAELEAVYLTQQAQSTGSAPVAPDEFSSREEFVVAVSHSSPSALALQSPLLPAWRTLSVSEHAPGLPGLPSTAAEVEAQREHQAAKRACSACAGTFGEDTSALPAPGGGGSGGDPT
Protocol: as §1, §2, §3

in vitro = conditions: human hepatocytes
Protocol: as §7

[3] = human, 1 µM
Protocol: as §7

PDE4B2 = PDE4B2 (Homo sapiens (Human), UniProt Q07343); assay: PDE4 inhibition assay (fluorescence polarization), PDE4B2; type: biochemical
Sequence of PDE4B2 (Q07343 other isoform, or with tags, fused parts or gaps): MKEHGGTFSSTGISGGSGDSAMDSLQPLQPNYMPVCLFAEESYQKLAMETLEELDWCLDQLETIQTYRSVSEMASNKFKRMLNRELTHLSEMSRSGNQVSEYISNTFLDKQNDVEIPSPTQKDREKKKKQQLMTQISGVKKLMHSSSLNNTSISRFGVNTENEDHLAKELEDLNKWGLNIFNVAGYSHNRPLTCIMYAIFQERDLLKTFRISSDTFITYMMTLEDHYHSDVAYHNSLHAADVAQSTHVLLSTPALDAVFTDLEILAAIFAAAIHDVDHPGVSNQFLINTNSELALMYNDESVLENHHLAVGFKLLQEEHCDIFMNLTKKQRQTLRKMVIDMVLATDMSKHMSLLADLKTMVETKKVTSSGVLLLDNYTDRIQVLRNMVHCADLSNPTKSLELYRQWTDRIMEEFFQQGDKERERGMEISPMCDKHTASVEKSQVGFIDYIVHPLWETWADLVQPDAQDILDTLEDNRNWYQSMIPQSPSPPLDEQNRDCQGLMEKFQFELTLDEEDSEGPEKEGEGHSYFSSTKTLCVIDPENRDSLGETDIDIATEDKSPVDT
Protocol: as §1, §2, §3

SERT = SERT (Homo sapiens (Human), UniProt P31645); assay: SERT inhibition assay (Neurotransmitter Transporter fluorescence uptake, stable 5HTT HEK293 cells); type: cell-based; conditions: n=6 ± SD
Protocol: SERT inhibition was measured using a Neruotransmitter Transportation Fluorescence assay. Briefly, stable 5HTT HEK293 cells were prepared in a 384 microwell plate (20,000 cells per 20 μL well). Compounds were prepared by in assay buffer (20 mM HEPES in HBSS, 0.1% BSA) at a top concentration of 1 μM. 10 doses of test compound (3-fold serial dilution) were added to the plated cells and incubated for 30 minutes at 37° C. 25 μL of dye solution (Molecular Devices Neurotransmitter Transporter Uptake Assay Kit) was added per well and incubated for 30 minutes at 37° C.

mouse behavior = assay: SmartCube system behavioral signature in mice; type: in vivo
Source text: To confirm that compound 018 and Compound 019 has antidepressant effects, the SmartCube® system (Psychogenics, Inc., Paramus, NJ) was used. This system uses features derived from mouse behavioral data to classify compounds for their ability to treat neuro-psychiatric symptoms by comparing the features to a proprietary reference database of behavioral feature sets that are linked to classes of marketed drugs known to treat neuro-psychiatric symptoms. Thus the system can be used as a model to identify the psychiatric effect of a compound by comparing the effects of the compounds against drugs with known validated effects. By comparing the responses of animals to known drugs, the test drug can be categorized according to its function; for example, hallucinogen, anxiogenic, analgesic, cognitive enhancer, psychostimulant, mood stabilizer, high dose anti-psychotic, anti-psychotic, sedative/hypnotic, anxiolytic, high dose antidepressant, antidepressant.
Once all features are extracted from the raw data through an automated pipeline, proprietary bioinformatics algorithms are used to decorrelate groups of features and find the combination of values that best separate different groups of interest. For each compound, at each dose, they system provides a probability that the drug is active and breaks down such putative activity into the different classes of interest.
Mice were tested in the SmartCube® system where they were exposed to a sequence of challenges during the 45-minute test period. The cubes were cleaned between each run.
For class and subclass analysis, a reference data set has been built from hundreds of drug doses in multiple drug classes plus a control group. Each reference drug was tested at multiple doses appropriate for that drug in mice. The best performing classifiers were chosen from our evaluation tests and two separate types of classifiers were built that make independent predictions at drug class and subclass levels. The Class consists of drugs that are currently in the market or have been clinically validated for that specific indication. The sub-class consists of both marketed drugs and other compounds that have been mechanistically validated and is a larger set than the Class.
Data was processed using proprietary computer vision and data mining algorithms and the results were compared to signatures of the reference compounds in our database. Multiple analyses of the data was performed to quantitatively produce independent predictions of drug class, and drug subclass. The behavioral signatures of the test drug were evaluated using these classifiers to predict potential therapeutic utility.

Sequence of PDE4C1 (Q08493 whole entry): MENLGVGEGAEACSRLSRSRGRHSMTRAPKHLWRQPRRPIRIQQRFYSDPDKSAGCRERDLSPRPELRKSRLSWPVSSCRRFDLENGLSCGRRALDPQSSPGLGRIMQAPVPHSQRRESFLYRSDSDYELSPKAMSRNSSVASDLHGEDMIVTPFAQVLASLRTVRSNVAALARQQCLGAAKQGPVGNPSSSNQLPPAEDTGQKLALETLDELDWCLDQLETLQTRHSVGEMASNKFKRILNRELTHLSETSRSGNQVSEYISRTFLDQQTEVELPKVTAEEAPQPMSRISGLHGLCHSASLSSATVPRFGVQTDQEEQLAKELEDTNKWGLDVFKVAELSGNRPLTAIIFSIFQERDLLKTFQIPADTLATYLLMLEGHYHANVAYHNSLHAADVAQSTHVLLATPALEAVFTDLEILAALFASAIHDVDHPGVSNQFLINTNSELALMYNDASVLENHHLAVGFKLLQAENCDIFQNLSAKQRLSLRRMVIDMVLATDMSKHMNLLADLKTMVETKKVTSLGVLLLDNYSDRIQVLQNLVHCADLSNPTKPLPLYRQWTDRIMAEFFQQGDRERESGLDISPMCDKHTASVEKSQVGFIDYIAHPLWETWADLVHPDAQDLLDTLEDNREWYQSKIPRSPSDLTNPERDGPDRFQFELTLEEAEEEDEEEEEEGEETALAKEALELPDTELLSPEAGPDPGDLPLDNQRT

**Q.** For `COc1ccc([C@@]23CC[C@H](O)C[C@@H]2N(C)CC3)cc1OC` [Compound 019, (3aS,6S,7aS)-3a-(3,4-dimethoxyphenyl)-1-methyloctahydro-1H-indol-6-ol], which AUC(0-inf) (in vivo; iv, 2 mg/kg) is on record?
**A.** 3140 ng·h/mL

**Q.** What about the AUC(0-t) (in vivo; iv, 2 mg/kg) of the same compound?
**A.** 3120 ng·h/mL

**Q.** What about the C0 (in vivo; iv, 2 mg/kg) of the same compound?
**A.** 1530 ng/mL

**Q.** And the MRT inf (in vivo; iv, 2 mg/kg)?
**A.** 3.86 h

**Q.** And the half-life (in vivo; iv, 2 mg/kg)?
**A.** 3.38 h

**Q.** What about the AUC(0-inf) (in vivo; po, 10 mg/kg) of the same compound?
**A.** 14800 ng·h/mL

**Q.** And the AUC(0-t) (in vivo; po, 10 mg/kg)?
**A.** 14700 ng·h/mL

**Q.** What about the Cmax (in vivo; po, 10 mg/kg) of the same compound?
**A.** 2550 ng/mL

**Q.** And the MRT inf (in vivo; po, 10 mg/kg)?
**A.** 4.85 h

**Q.** What about the Tmax (in vivo; po, 10 mg/kg) of the same compound?
**A.** 0.83 h

**Q.** What about the half-life (in vivo; po, 10 mg/kg) of the same compound?
**A.** 3.33 h

**Q.** What about the “AUC_% Extrap_obs” value ([1]; beagle, iv, 2 mg/kg) of the same compound?
**A.** 0.52%

**Q.** What about the AUClast/D ([1]; beagle, iv, 2 mg/kg) of the same compound?
**A.** 1560

**Q.** What about the Cl_obs ([1]; beagle, iv, 2 mg/kg) of the same compound?
**A.** 10.82 mL/min/kg

**Q.** What about the “AUC_% Extrap_obs” value ([1]; beagle, po, 10 mg/kg) of the same compound?
**A.** 0.64%

**Q.** And the AUClast/D ([1]; beagle, po, 10 mg/kg)?
**A.** 1473.2

**Q.** What about the F ([1]; beagle, po, 10 mg/kg) of the same compound?
**A.** 94.6%

**Q.** And the “half-life compared to Compound 018” value ([1]; iv)?
**A.** about three times greater

**Q.** And the “Extraction Ratio” value [2]?
**A.** <0.10

**Q.** What about the t1/2 [2] of the same compound?
**A.** >2 h

**Q.** And the “PDE4C1 % INH @ 10 μM” value (PDE4C1)?
**A.** 3%

**Q.** What about the inhibition at 10 µM (PDE4C1; read-out: PDE4C1 % INH @ 10 μM) of the same compound?
**A.** ≤ 5%

**Q.** What about the “PDE4D2 %INH @ 10 μM” value (PDE4D2) of the same compound?
**A.** 3%

**Q.** And the inhibition at 10 µM (PDE4D2; read-out: PDE4D2 %INH @ 10 μM)?
**A.** ≤ 5%

**Q.** And the “PDE4A1A % INH @ 10 μM” value (PDE4A1A)?
**A.** 4%

**Q.** What about the inhibition at 10 µM (PDE4A1A; read-out: PDE4A1A % INH @ 10 μM) of the same compound?
**A.** ≤ 5%

**Q.** What about the CLint scaled at 1 µM (in vitro) of the same compound?
**A.** < 2 mL/min/kg

**Q.** What about the half-life at 1 µM (in vitro) of the same compound?
**A.** > 2 h

**Q.** What about the hepatocyte CLint at 1 µM (in vitro) of the same compound?
**A.** < 1 µL/min/1e6 cells

**Q.** And the “% QH” value [3]?
**A.** <10%

**Q.** And the CLHB [3]?
**A.** <2 mL/min/kg

**Q.** What about the “PDE4B2 % INH @ 10 μM” value (PDE4B2) of the same compound?
**A.** 0%

**Q.** What about the “PDE4B2 % INH @ 10 μM” value (PDE4B2; listed as Compound 19) of the same compound?
**A.** no more than 5%

**Q.** And the IC50 (SERT)?
**A.** 10.6 ± 10.1 nM

**Q.** What about the “behavioral activity (in words)” value (mouse behavior; mice, 3 mg/kg) of the same compound?
**A.** low behaviorally activity

**Q.** What about the “antidepressant signature, subclass analysis” value (mouse behavior; mice, 100 mg/kg) of the same compound?
**A.** a mix of SSRI and SNRI

**Q.** And the “signature in class and subclass” value (mouse behavior; mice, 10, 30 and 100 mg/kg)?
**A.** mixed antidepressant and psychostimulant-like signatures

Source: patent publication US20240398759A1, “INHIBITING SEROTONIN TRANSPORTER PROTEIN (5-HTT)” (priority 2022, published 2024)
